Source: patent publication US9249157B2, “Tricyclic heterocycle compounds” (BRISTOL-MYERS SQUIBB COMPANY, priority 2012, dated 2016)

How the values were obtained:
TALL1 = experiment: Human Tumor Xenograft Models in Mice, TALL1; type: in vivo; conditions: 60 mg/kg, QDx10, oral administration; LCK = Log Cell Kill
From the text: Human Tumor Xenograft Models in Mice
All rodents were obtained from Harlan Sprague Dawley Co. (Indianapolis, Ind.), and maintained in an ammonia-free environment in a defined and pathogen—free colony. All mice were quarantined approximately 1 week prior to their use for tumor propagation and drug efficacy testing. Mice were fed food and water ad libitum. The animal care program of Bristol-Myers Squibb Pharmaceutical Research Institute is fully accredited by the American Association for Accreditation of Laboratory Animal Care (AAALAC). All experiments were performed in accordance with Bristol-Myers Squibb (BMS) animal test methods and guidelines. […]
The required numbers of animals needed to detect a meaningful response were pooled at the start of the experiment and each was given a subcutaneous implant of a tumor fragment (˜20 mg) with a 13-gauge trocar. Tumors were allowed to grow to the pre-determined size window (tumors outside the range were excluded) and animals were evenly distributed to various treatment and control groups. […]
Tumor response was determined by measurement of tumors with a caliper twice a week, until the tumors reached a predetermined “target” size of 0.5 gm or 1 gm depending on the tumor type. […]
Tumor response criteria are expressed in terms of tumor growth inhibition (% TGI). […] For this purpose, the tumor weight of a group is expressed as […] tumor weight (MTW). […]

human Notch 3 = experiment: Notch-CBF1 Transactivation Assay (Notch 3); type: cell-based; conditions: HeLa cells transfected with truncated Notch 3 and CBF1 luciferase reporter; 18 hours incubation
From the text: Notch-CBF1 Transactivation Assay
The Notch-CBF1 (C-promoter binding factor I) cell based transactivation assay is based on the ability of the released Notch intracellular domain fragments (NICDs) to function as transcription factors in conjunction with CBF1 and other nuclear factors. Luciferase assays were used to measure the antagonism of Notch-CBF1 transcriptional activity. HeLa cervical cancer cells are transiently co-transfected with pCDNA3.1/Hygro plasmids containing truncated Notch 1, Notch 2, Notch 3, or Notch 4 receptors and a PGL3 luciferase reporter vector containing 4 copies of CBF1 binding site. The cells were then tested for Notch-CBF1 activity in the absence or presence of test compounds. HeLa cells, maintained in DMEM (high glucose with HEPES), 1× glutamine/penicillin/streptomycin and 10% Fetal Bovine serum, were transiently transfected in a T175 Flask (4.5×10^6 cells/flask) using the Monster Transfection Kit (Minis #MIR2906) according to manufacturers specifications. Table 1 denotes respective DNA quantity for the transfections.
Six hours post-transfection, cells were trypsinized and plated into a 384-well black Poly-D-lysine coated tissue culture plate at a density of 5×10^3 cells/well in 95 μL assay media (DMEM (high glucose with HEPES), 1× glutamine/penicillin/streptomycin, 0.0125% BSA, 1× non-essential amino acids). Assay media (5 μL) containing test compounds in final concentrations ranging from 5 μM to 8.4×10^−5 μM (3 fold serial dilutions) were added to the cells and the cell plates were then incubated for 18 hours at 37° C. and 5% CO2. Control wells contained DMSO vehicle (total counts) or 0.5 μM of an in-house small molecule inhibitor (background counts). Duplicates were used for each sample. Luciferase activity was measured after a 20-minute incubation with 50 μl STEADY-GLO® luciferase reagents according to manufacturer's specifications (Promega, Cat. #E2550) and analyzed by Envision plate reader (PerkinElmer, Boston, Mass.).
The antagonist effect of compounds was expressed as 100×[1−(average sample−average background)/(average total−average background)] where sample is the luciferase activity in the presence of test compound, background is equal to the luciferase activity in the presence of the small molecule inhibitor control and the total is signal induced in DMSO wells.

[1] = High Throughput Metabolic Stability Panel, mouse microsomes; type: in vitro ADME; conditions: 10 minute incubation, 0.5 μM, control compound expected range
Experimental: (§1) High Throughput (HT) Metabolic Stability Panel
(§2) The metabolic stability assay evaluated CYP-mediated metabolic stability in vitro using human, rat, mouse, dog, and/or monkey microsomes after a ten-minute incubation. Each compound was tested in duplicate.
(§3) Test compound was received as a 3.5 mM stock solution in 100 percent DMSO. The test compound was diluted to create a 50 μM acetonitrile (ACN) solution containing 1.4% DMSO, which was then used as a 100× stock for incubation with microsomes. Each compound was tested in duplicate separately in each of three species in the Metabolic Stability-Human, Rat, and Mouse assay suite or as individual species in the Metabolic Stability-Dog or Metabolic Stability-Monkey suites. Compound, NADPH, and liver microsome solutions were combined for incubation in three steps:
(§4) 1. 152 μl of liver microsome suspension, protein concentration of 1.1 mg/ml in 100 mM NaPi, pH 7.4, 5 mM MgCl2 buffer, was pre-warmed at 37° C.
(§5) 3. The reaction was initiated by the addition of 17 μl of pre-warmed 10 mM NADPH solution in 100 mM NaPi, pH 7.4.
(§6) The reaction components were mixed well, and 75 μl of the reaction mixture was immediately transferred into 150 μl quench/stop solution (zero-time point, T0). Reactions were incubated at 37° C. for 10 minutes and then an additional 75 μl aliquot was transferred into 150 μl quench solution. […]

[2] = High Throughput Metabolic Stability Panel, rat microsomes; type: in vitro ADME; conditions: 10 minute incubation, 0.5 μM, control compound expected range
Experimental: as §1, §2, §3, §4, §5, §6

[3] = High Throughput Metabolic Stability Panel, human microsomes; type: in vitro ADME; conditions: 10 minute incubation, 0.5 μM, control compound expected range
Experimental: as §1, §2, §3, §4, §5, §6

[4] = High Throughput Metabolic Stability Panel, dog microsomes; type: in vitro ADME; conditions: 10 minute incubation, 0.5 μM, control compound expected range
Experimental: as §1, §2, §3, §4, §5, §6

[5] = High Throughput Metabolic Stability Panel, monkey microsomes; type: in vitro ADME; conditions: 10 minute incubation, 0.5 μM, control compound expected range
Experimental: as §1, §2, §3, §4, §5, §6

Average Percent Remaining ± SD, Mouse [1] | Average Percent Remaining ± SD, Rat [2] | Average Percent Remaining ± SD, Human [3] | Average Percent Remaining ± SD, Dog [4] | Average Percent Remaining ± SD, Monkey [5] | Compound | Antitumor Activity TALL1 (LCK) (TALL1) | IC50 (human Notch 3)
 |  |  |  |  | CCC[C@H](C(N)=O)[C@@H](CCC(F)(F)F)C(=O)N[C@H]1N=C(c2ccccc2)c2cccc3c2N(CCO3)C1=O [Example 7, (2R,3S)—N-((6S)-5-Oxo-8-phenyl-2,3,5,6-tetrahydro[1,4]oxazino[2,3,4-jk][1,4]benzodiazepin-6-yl)-3-propyl-2-(3,3,3-trifluoropropyl)succinamide] | 0.7 | 0.0148 µM
0.4 ± 0.3% | 0.7 ± 0.6% | 0.4 ± 0.4% | 0.4 ± 0.4% | 0.6 ± 0.5% | CCc1nn(CCCN2CCN(c3cccc(Cl)c3)CC2)c(=O)n1CCOc1ccccc1 [Nefazodone] |  | 
